Reference: ChEMBL document CHEMBL1909046, “DrugMatrix in vitro pharmacology data”
pIC50, pKi: −log10 of the molar value.

Columns and labels:
[1] = molecular target: T1, Thromboxane-A synthase (Homo sapiens, UniProt P24557); assay: biochemical; assay type: tissue-based, Platelet; conditions: for IC50: platelet; for pIC50: read-out: IC50;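 on all read-outs here: enzyme inhibition assay with PGH2 supplied as substrate; in other assays of this panel Not Active means under 50% inhibition at 10 µM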
T1 sequence (P24557 whole entry): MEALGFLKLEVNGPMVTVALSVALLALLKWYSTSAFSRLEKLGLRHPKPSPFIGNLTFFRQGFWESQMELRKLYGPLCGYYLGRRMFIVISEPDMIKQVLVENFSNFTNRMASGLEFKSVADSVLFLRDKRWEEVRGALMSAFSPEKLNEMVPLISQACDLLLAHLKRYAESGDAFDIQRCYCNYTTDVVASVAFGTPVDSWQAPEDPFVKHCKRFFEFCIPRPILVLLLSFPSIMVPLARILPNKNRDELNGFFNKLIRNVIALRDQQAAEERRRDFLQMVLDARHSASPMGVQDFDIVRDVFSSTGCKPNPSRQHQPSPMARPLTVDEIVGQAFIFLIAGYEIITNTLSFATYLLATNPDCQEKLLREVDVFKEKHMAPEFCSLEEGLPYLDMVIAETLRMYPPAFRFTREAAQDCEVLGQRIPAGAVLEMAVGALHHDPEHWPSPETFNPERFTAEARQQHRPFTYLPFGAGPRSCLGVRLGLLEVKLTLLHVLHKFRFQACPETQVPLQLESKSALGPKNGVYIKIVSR

[2] = DRUGMATRIX: GABAA, Chloride Channel, TBOB radioligand binding (ligand: [3H] TBOB); assay type: cell membranes, Rattus norvegicus, Wistar, Cerebral cortex, Membrane; conditions: Not Active = under 50% inhibition at 10 µM
[3] = DRUGMATRIX: Potassium Channel [KATP] radioligand binding (ligand: [3H] Glyburide); assay type: cell membranes, Membrane; conditions: hit-t15; Not Active = under 50% inhibition at 10 µM
[4] = molecular target: Kappa-type opioid receptor (Homo sapiens, UniProt P41145); assay: DRUGMATRIX: Opiate kappa (OP2, KOP) radioligand binding (ligand: [3H] Diprenorphine); assay type: cell membranes, HEK293, Membrane; conditions: hek293; Not Active = under 50% inhibition at 10 µM
[5] = DRUGMATRIX: Glutamate, NMDA, Phencyclidine radioligand binding (ligand: [3H] TCP); assay type: cell membranes, Rattus norvegicus, Wistar, Cerebral cortex, Membrane; conditions: Not Active = under 50% inhibition at 10 µM
[6] = DRUGMATRIX: Platelet-Derived Growth Factor (PDGF) radioligand binding (ligand: [125I] PDGF); assay type: cell-based; conditions: nih3t3; Not Active = under 50% inhibition at 10 µM
[7] = DRUGMATRIX: Glutamate, Kainate radioligand binding (ligand: [3H] Kainic acid); assay type: cell membranes, Rattus norvegicus, Wistar, Brain, Membrane; conditions: Not Active = under 50% inhibition at 10 µM
[8] = molecular target: Beta-2 adrenergic receptor (Homo sapiens, UniProt P07550); assay: DRUGMATRIX: Adrenergic beta2 radioligand binding (ligand: [3H] CGP-12177); assay type: cell membranes, Membrane; conditions: cho; Not Active = under 50% inhibition at 10 µM
[9] = molecular target: T2, Substance-K receptor (Homo sapiens, UniProt P21452); assay type: cell membranes, CHO, Membrane; conditions: for IC50: cho; for pIC50: read-out: IC50; for pKi: read-out: Ki; on all read-outs here: in other assays of this panel Not Active means under 50% inhibition at 10 µM
T2 sequence (P21452 whole entry): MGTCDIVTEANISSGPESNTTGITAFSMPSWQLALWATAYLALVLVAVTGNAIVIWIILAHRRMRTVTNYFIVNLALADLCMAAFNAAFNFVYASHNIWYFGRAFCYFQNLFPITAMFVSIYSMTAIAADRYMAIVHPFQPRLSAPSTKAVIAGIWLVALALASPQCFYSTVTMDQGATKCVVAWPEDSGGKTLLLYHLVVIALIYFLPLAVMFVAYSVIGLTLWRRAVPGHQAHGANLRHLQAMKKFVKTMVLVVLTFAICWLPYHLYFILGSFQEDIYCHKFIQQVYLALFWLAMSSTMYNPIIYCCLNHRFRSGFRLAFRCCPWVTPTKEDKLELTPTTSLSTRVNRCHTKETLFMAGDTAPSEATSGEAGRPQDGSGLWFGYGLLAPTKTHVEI

[10] = molecular target: 5-hydroxytryptamine receptor 4 (Cavia porcellus, UniProt O70528); assay type: cell membranes, Dunkin-Hartley, Striatum, Membrane; further: in other assays of this panel Not Active means under 50% inhibition at 10 µM
Sequence of 5-hydroxytryptamine receptor 4 (O70528 whole entry): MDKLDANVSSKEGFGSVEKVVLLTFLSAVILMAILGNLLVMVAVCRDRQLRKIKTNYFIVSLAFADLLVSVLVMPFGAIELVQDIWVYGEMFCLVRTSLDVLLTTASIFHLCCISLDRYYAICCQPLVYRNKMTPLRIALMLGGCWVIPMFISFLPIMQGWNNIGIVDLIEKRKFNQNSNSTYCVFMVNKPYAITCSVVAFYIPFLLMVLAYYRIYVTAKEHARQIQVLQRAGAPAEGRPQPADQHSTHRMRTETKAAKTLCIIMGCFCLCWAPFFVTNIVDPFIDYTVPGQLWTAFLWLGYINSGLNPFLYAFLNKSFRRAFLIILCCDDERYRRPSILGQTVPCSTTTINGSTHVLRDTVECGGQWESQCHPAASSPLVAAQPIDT

Sequence of Beta-2 adrenergic receptor (P07550 whole entry): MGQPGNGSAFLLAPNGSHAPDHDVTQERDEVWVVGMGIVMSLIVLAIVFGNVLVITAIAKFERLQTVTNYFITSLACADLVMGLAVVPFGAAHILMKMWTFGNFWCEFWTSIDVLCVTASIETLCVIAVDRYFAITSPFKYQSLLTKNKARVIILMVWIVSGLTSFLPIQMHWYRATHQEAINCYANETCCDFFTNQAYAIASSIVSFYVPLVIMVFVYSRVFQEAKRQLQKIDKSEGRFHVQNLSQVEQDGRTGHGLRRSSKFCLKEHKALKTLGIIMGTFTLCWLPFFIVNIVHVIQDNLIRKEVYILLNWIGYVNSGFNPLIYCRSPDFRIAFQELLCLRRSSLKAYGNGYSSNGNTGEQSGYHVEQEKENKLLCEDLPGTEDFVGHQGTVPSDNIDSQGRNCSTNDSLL
Sequence of Kappa-type opioid receptor (P41145 whole entry): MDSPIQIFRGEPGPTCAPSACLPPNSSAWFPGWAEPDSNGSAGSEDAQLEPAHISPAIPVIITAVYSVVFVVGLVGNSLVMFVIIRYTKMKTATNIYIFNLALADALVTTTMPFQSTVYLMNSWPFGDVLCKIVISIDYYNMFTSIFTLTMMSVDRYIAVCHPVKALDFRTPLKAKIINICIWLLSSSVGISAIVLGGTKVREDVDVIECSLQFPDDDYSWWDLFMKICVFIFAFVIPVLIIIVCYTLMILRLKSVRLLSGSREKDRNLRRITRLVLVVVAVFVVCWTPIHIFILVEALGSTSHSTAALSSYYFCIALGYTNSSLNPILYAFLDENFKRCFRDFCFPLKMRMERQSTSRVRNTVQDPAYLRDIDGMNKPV

Structure (SMILES) | IC50 [1] | IC50 [2] | Ki [2] | IC50 [3] | Ki [3] | IC50 [4] | IC50 [5] | Ki [5] | IC50 [6] | Ki [6] | IC50 [7] | Ki [7] | IC50 [8] | IC50 [9] | IC50 [10] | pIC50 [1] | pIC50 [9] | pKi [9]
Cc1cc(C)nc(NS(=O)(=O)c2ccc(N)cc2)n1 [SULFAMETHAZINE] | Not Active | Not Active | Not Active | Not Active | Not Active | Not Active | Not Active | Not Active | Not Active | Not Active | Not Active | Not Active | Not Active | Not Active | Not Active |  |  | 
CN1CCC(=C2c3ccccc3C=Cc3ccccc32)CC1 [CYPROHEPTADINE] | Not Active |  |  |  |  | Not Active |  |  |  |  |  |  | Not Active | Not Active | Not Active |  |  | 
CNC(=C[N+](=O)[O-])NCCSCc1ccc(CN(C)C)o1 [RANITIDINE] | Not Active | Not Active | Not Active | Not Active | Not Active | Not Active | Not Active | Not Active | Not Active | Not Active | Not Active | Not Active | Not Active | Not Active | Not Active |  |  | 
CC(=O)N1CCN(c2ccc(OCC3COC(Cn4ccnc4)(c4ccc(Cl)cc4Cl)O3)cc2)CC1 (centres undefined) [KETOCONAZOLE] |  | Not Active | Not Active |  |  | Not Active | Not Active | Not Active | Not Active | Not Active | Not Active | Not Active | Not Active |  | Not Active | 5.66 | 4.76 | 5.24
CC(C)CC(N(C)C)C1(c2ccc(Cl)cc2)CCC1 (centres undefined) [SIBUTRAMINE] | Not Active | Not Active | Not Active | Not Active | Not Active | Not Active | Not Active | Not Active | Not Active | Not Active | Not Active | Not Active | Not Active | Not Active | Not Active |  |  | 
Cc1onc(-c2ccccc2)c1-c1ccc(S(N)(=O)=O)cc1 [VALDECOXIB] | Not Active | Not Active | Not Active | Not Active | Not Active | Not Active | Not Active | Not Active | Not Active | Not Active | Not Active | Not Active | Not Active | Not Active | Not Active |  |  | 
CC/C(=C(/CC)c1ccc(O)cc1)c1ccc(O)cc1 [DIETHYLSTILBESTROL] |  |  |  |  |  |  |  |  |  |  |  |  | Not Active |  | Not Active | 5.36 | 5.02 | 5.50
C[C@]1(Cn2ccnn2)[C@H](C(=O)O)N2C(=O)C[C@H]2S1(=O)=O [TAZOBACTAM] | Not Active | Not Active | Not Active | Not Active | Not Active | Not Active | Not Active | Not Active | Not Active | Not Active | Not Active | Not Active | Not Active | Not Active | Not Active |  |  | 
COCCOC(=O)C1=C(C)NC(C)=C(C(=O)OC(C)C)C1c1cccc([N+](=O)[O-])c1 (centres undefined) [NIMODIPINE] | Not Active | Not Active | Not Active | Not Active | Not Active | Not Active | Not Active | Not Active | Not Active | Not Active | Not Active | Not Active | Not Active | Not Active | Not Active |  |  | 
Cc1cccc(Nc2ccncc2S(=O)(=O)NC(=O)NC(C)C)c1 [TORSEMIDE] | Not Active | Not Active | Not Active | Not Active | Not Active | Not Active | Not Active | Not Active | Not Active | Not Active | Not Active | Not Active | Not Active | Not Active | Not Active |  |  | 
